According to paper PMC10746543, “Design principles for cyclin K molecular glue degraders” (Nature Chemical Biology, 2023):
Several values for one entry are separate records, joined by “and”; a condition that tells them apart may be missing. Equal entries are not always repeated. Where two headings read alike, the source gives them in different places.

Assays:
[1] = molecular target: T1, CDK12–cyclin K and DDB1 (Homo sapiens, UniProt Q16531+Q9NYV4, K965R); assay: TR-FRET ternary complex formation assay (compound titration); assay type: binding; conditions: for TR-FRET signal at compound concentration: replicate titrations
T1 construct: His6–CDK12 (a.a. 713–1,052); full-length or beta-propeller B domain deletion (ΔBPB: a.a. 396–705 deleted) constructs of His6–DDB1ΔBPB, StrepII–Avi–DDB1, or His6–Spy–DDB1; made in house; host or cells: Trichoplusia ni High Five insect cells (baculovirus)
In short: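 Read-out used a 70 μs delay to cut background fluorescence; TR-FRET signal taken as the 520 nm/490 nm emission ratio.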

[2] = test system: cyclin K–eGFP degradation reporter; assay: Cyclin K reporter stability analysis (dual-color cyclin K–eGFP reporter); assay type: cell-based, human; conditions: source data sheet correlations; read-out: DC50
In short: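 Readout: flow-cytometric eGFP/mCherry ratio (geometric means, round mCherry+ gate) relative to the average of three DMSO wells. Reporter line was HEK293T–Cas9, treated 5 h with compound.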

[3] = test system: HEK293T cells; assay: Drug sensitivity assay (CellTiter-Glo viability) with or without MLN4924 pretreatment; assay type: cell-based, human; conditions: Supplementary Table 2
In short: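 HEK293T–Cas9 cells at 0.15 × 10^6 ml^−1 were treated with DMSO or 100 nM MLN4924 before plating. Test drugs were added 2 h later and exposure lasted 3 days. Viability was read by CellTiter-Glo luminescence and expressed relative to DMSO controls.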

[4] = test system: cyclin K; assay: Label-free quantitative mass spectrometry in MDA-MB-231 cells, cyclin K; assay type: cell-based, human
Method: (§1) MDA-MB-231 cells were treated with DMSO or a cyclin K degrader compound at 1 µM for 5 h. Cells were collected by centrifugation and washed with phosphate-buffered saline before snap freezing in liquid nitrogen. Cells were lysed by addition of lysis buffer (8 M urea, 50 mM NaCl, 50 mM 4-(2-hydroxyethyl)-1-piperazineethanesulfonic acid (EPPS) pH 8.5, and protease and phosphatase inhibitors) and homogenization by bead beating (BioSpec) for three repeats of 30 s at 2,400 rpm. Bradford assay was used to determine the final protein concentration in the clarified cell lysate. Then 50 µg of protein for each sample was reduced, alkylated and precipitated using methanol/chloroform as previously described, and the resulting washed precipitated protein was allowed to air dry. Precipitated protein was resuspended in 4 M urea, 50 mM HEPES pH 7.4, followed by dilution to 1 M urea with the addition of 200 mM EPPS, pH 8. Proteins were first digested with LysC (1:50; enzyme:protein) for 12 h at room temperature. The LysC digestion was diluted to 0.5 M urea with 200 mM EPPS pH 8 followed by digestion with trypsin (1:50; enzyme:protein) for 6 h at 37 °C. Sample digests were acidified with formic acid to a pH of 2–3 before desalting using C18 solid phase extraction plates (SOLA, Thermo Fisher Scientific). Desalted peptides were dried in a vacuum-centrifuged and reconstituted in 0.1% formic acid for liquid chromatography–mass spectrometry analysis.
(§2) Data were collected using a TimsTOF Pro2 (Bruker Daltonics) coupled to a nanoElute LC pump (Bruker Daltonics) via a CaptiveSpray nano-electrospray source. Peptides were separated on a reversed-phase C18 column (25 cm × 75 µm inner diameter, […], IonOpticks) containing an integrated captive spray emitter. Peptides were separated using a 50 min gradient of 2–30% buffer B (acetonitrile in 0.1% formic acid) with a flow rate of 250 nl min^−1 and column temperature maintained at 50 °C.
(§3) Data-dependent acquisition (DDA) was performed in Parallel Accumulation-Serial Fragmentation (PASEF) mode to determine effective ion mobility windows for downstream diaPASEF data collection. The ddaPASEF parameters included: 100% duty cycle using accumulation and ramp times of 50 ms each, one Trapped Ion Mobility Spectrometry(TIMS)-MS scan and ten PASEF ramps per acquisition cycle. The TIMS-MS survey scan was acquired between 100 m/z and 1,700 m/z and 1/K0 of 0.7–1.3 V s cm^−2. Precursors with one to five charges were selected, and those that reached an intensity threshold of 20,000 arbitrary units were actively excluded for 0.4 min. The quadrupole isolation width was set to 2 m/z for m/z < 700 and 3 m/z for m/z > 800, with the m/z between 700 m/z and 800 m/z being interpolated linearly. […] To perform diaPASEF, the precursor distribution in the DDA m/z-ion mobility plane was used to design an acquisition scheme for data-independent acquisition (DIA) data collection that included two windows in each 50 ms diaPASEF scan. Data were acquired using 16 of these 25 Da precursor double window scans (creating 32 windows) that covered the diagonal scan line for doubly and triply charged precursors, with singly charged precursors able to be excluded by their position in the m/z-ion mobility plane. These precursor isolation windows were defined between 400 m/z and 1,200 m/z and 1/K0 of 0.7–1.3 V s cm^−2.
(§4) DirectDIA mode includes first extracting the DIA data into a collection of MS2 spectra which are searched using Spectronaut’s Pulsar search engine. The search results are then used to generate a spectral library which is then employed for the targeted analysis of the DIA data. MS/MS spectra were searched against a Swissprot human database (January 2021). Database search criteria largely followed the default settings for directDIA including: tryptic with two missed cleavages, fixed carbomidomethylation of cysteine, and variable oxidation of methionine and acetylation of protein N-termini and precursor Q-value (FDR) cut-off of 0.01. […]

[5] = molecular target: T2, CDK12 (Homo sapiens, UniProt Q16531+Q9NYV4); assay: Label-free quantitative mass spectrometry in MDA-MB-231 cells, CDK12; assay type: cell-based
T2 construct: endogenous in cells; host or cells: MDA-MB-231
Method: as §1, §2, §3, §4

[6] = molecular target: T3, CDK13 (Homo sapiens, UniProt Q14004+Q16531); assay: Label-free quantitative mass spectrometry in MDA-MB-231 cells, CDK13; assay type: cell-based
T3 construct: endogenous in cells; host or cells: MDA-MB-231
Method: as §1, §2, §3, §4

[7] = label-free quantitative MS, replicate values
[8] = normalised to DMSO = 1, replicate values

T2 sequence (Q9NYV4 whole entry): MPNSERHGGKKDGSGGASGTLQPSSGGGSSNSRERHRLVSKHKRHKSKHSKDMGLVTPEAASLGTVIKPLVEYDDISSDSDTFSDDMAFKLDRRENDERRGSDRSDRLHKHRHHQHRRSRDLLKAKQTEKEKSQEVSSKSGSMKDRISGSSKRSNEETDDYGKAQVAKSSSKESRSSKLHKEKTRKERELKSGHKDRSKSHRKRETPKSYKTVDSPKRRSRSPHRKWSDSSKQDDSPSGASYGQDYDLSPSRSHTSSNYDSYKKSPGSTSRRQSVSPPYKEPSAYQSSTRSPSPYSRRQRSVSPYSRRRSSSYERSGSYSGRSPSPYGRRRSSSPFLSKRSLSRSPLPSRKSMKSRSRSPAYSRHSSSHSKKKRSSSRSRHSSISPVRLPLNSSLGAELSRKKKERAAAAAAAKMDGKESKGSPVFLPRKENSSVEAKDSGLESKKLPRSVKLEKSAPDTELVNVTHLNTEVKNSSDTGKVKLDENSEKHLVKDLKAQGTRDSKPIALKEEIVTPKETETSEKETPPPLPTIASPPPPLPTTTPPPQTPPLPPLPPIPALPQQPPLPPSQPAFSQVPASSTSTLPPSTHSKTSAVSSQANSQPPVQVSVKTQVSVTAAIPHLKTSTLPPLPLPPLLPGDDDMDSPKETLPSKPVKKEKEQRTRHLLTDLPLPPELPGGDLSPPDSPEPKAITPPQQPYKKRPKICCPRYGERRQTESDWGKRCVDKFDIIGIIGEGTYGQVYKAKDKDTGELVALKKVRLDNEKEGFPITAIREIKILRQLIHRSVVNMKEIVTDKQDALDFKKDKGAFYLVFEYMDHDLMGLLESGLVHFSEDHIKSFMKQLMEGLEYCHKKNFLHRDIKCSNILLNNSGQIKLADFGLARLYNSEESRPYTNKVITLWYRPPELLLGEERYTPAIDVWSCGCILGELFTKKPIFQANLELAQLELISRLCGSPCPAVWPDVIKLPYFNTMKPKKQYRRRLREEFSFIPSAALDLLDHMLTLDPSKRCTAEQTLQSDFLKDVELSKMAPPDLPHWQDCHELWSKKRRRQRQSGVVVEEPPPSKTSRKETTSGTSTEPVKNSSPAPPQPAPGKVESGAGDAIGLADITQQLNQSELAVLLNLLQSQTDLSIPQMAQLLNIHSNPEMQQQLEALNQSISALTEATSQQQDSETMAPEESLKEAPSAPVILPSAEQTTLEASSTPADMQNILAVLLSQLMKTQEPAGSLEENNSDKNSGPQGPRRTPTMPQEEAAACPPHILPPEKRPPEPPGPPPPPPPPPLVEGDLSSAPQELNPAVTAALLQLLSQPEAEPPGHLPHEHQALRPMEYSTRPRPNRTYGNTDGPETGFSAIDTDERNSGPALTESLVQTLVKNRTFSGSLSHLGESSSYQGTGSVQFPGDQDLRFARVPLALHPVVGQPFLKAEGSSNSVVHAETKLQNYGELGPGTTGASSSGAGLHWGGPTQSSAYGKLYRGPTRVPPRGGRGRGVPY
T2 sequence (O75909 whole entry partner): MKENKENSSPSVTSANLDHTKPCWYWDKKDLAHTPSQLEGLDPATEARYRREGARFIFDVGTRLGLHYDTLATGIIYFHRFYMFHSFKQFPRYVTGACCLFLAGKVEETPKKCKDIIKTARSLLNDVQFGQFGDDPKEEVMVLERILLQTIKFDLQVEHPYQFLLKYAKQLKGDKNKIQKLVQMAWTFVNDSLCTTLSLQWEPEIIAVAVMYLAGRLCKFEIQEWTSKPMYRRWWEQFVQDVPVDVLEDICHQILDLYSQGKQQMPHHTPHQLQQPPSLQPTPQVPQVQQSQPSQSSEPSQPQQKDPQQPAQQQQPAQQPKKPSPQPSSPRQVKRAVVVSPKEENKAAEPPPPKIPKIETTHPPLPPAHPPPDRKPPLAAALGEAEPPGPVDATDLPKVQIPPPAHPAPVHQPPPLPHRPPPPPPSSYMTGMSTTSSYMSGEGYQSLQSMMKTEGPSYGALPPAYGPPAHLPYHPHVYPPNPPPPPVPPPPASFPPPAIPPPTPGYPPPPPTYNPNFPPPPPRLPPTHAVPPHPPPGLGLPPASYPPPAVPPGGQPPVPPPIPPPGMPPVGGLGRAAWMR
T2 sequence (Q16531 2-1140 limits assumed): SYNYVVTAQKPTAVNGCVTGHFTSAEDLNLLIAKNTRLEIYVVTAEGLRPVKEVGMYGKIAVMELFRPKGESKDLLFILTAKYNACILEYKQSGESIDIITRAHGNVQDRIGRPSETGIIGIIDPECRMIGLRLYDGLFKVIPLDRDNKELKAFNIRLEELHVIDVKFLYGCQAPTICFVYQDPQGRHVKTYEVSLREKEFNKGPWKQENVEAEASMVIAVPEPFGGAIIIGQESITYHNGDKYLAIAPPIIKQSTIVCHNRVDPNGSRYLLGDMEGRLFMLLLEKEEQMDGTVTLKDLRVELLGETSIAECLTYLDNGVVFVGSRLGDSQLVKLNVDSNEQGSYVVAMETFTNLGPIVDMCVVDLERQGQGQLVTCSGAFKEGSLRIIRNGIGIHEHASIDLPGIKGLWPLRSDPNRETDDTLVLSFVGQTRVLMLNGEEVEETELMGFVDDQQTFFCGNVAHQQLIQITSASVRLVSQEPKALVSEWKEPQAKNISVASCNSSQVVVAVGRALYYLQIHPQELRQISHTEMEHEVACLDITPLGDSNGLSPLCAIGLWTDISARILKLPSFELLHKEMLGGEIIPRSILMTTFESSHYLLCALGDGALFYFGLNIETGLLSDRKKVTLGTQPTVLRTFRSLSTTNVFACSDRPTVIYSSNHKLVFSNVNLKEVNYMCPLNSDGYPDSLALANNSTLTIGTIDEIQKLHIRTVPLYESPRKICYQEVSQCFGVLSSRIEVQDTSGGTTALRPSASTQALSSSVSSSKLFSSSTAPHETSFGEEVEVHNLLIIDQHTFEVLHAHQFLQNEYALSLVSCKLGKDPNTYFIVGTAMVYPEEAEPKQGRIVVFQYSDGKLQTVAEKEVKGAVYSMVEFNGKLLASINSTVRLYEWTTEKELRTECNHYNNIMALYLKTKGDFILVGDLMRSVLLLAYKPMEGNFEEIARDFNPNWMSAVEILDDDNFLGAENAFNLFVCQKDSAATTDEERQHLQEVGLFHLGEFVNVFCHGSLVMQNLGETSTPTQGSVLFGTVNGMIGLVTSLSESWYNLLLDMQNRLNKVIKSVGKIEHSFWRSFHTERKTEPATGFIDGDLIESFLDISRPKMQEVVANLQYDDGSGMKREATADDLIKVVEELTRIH
T1 sequence (Q9NYV4 713-1052 K965R): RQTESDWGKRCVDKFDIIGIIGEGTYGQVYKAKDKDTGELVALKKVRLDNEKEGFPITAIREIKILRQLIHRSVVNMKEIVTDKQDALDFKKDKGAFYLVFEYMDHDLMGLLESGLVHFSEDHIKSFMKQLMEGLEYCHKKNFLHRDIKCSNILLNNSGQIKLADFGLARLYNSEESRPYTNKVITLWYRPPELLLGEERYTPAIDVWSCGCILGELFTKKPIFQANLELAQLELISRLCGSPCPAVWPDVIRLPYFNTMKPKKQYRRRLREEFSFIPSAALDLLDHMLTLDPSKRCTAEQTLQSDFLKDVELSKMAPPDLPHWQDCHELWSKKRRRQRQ
T1 sequence (O75909 1-267 partner): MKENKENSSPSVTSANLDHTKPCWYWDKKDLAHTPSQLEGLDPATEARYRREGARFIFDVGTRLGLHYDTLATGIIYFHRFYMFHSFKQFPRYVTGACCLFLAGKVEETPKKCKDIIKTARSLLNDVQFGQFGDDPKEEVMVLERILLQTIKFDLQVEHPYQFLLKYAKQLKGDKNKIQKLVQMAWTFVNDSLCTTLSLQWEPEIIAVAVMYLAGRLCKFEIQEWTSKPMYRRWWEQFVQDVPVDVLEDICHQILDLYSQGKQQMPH
T1 sequence (Q16531 whole entry): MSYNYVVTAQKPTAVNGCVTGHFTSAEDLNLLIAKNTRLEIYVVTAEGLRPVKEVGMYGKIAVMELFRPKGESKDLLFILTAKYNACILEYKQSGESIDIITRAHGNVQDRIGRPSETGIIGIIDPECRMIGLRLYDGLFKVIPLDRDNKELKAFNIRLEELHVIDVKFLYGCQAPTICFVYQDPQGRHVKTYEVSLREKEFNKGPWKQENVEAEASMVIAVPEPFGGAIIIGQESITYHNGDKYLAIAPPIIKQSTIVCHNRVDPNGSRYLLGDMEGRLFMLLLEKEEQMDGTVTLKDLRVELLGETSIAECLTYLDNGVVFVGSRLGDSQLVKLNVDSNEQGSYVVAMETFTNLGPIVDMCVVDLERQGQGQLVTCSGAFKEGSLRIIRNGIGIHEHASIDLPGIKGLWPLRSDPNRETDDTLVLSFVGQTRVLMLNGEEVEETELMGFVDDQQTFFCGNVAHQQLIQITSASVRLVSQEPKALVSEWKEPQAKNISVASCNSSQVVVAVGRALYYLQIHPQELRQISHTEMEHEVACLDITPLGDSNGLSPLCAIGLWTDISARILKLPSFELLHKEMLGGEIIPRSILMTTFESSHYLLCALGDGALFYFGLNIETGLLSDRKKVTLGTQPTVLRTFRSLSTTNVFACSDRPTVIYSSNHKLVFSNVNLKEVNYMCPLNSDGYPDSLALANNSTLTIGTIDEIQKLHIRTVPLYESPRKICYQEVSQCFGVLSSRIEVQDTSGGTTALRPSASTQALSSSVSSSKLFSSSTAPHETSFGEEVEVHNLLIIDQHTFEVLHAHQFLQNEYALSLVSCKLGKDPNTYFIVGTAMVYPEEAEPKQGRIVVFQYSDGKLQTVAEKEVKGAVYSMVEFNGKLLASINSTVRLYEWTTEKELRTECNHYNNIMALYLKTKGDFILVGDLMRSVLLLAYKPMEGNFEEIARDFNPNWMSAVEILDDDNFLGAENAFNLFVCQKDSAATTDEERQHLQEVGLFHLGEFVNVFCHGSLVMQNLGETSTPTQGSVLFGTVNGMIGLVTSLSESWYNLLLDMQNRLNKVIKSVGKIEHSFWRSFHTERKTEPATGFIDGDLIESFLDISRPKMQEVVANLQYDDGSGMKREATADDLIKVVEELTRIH

## CC[C@H](CO)Nc1nc(NCCCc2cccc(C)c2)c2ncn(C(C)C)c2n1 [DS30]
[1]; compound concentration 0.468 nM
  TR-FRET signal at compound concentration: 0.2538 and 0.2487 and 0.2092
[1]; compound concentration 2.16 nM
  TR-FRET signal at compound concentration: 0.3096 and 0.3093 and 0.2708
[1]; compound concentration 3.6 nM
  TR-FRET signal at compound concentration: 0.4411 and 0.4525 and 0.4039
[1]; compound concentration 7.92001 nM
  TR-FRET signal at compound concentration: 0.6962 and 0.7001 and 0.6519
[1]; compound concentration 15.84 nM
  TR-FRET signal at compound concentration: 1.209 and 1.183 and 1.188
[1]; compound concentration 30.96 nM
  TR-FRET signal at compound concentration: 1.971 and 1.9872 and 1.9274
[1]; compound concentration 62.6401 nM
  TR-FRET signal at compound concentration: 3.092 and 3.095 and 2.939
[1]; compound concentration 125.28 nM
  TR-FRET signal at compound concentration: 3.635 and 3.6 and 3.694
[1]; compound concentration 244.8 nM
  TR-FRET signal at compound concentration: 4.013 and 4.0411
[1]; compound concentration 993.601 nM
  TR-FRET signal at compound concentration: 3.909 and 4.092 and 4.233
[1]; compound concentration 2001.6 nM
  TR-FRET signal at compound concentration: 4.11 and 4.134 and 4.272
[1]; in vitro complex formation, 50 nM CDK12–cyclin K, 100 nM DDB1, text and figures, read-out: TR-FRET EC50
  EC50: 35 ± 1 nM
[1]; sheet MOESM7, read-out: log TR-FRET EC50 (converted)
  EC50: 34.8 nM
[1]; source data sheet correlations, read-out: TR-FRET EC50
  EC50: 34.8 nM
[2]
  DC50: 78 nM
[3]; Homo sapiens, HEK-293T, HEK293T viability, 72 h, compound alone, read-out: Cellular assays EC50
  EC50: 451 nM
[3]; MLN4924-mediated cytotoxicity rescue, 10 µM used where n.d.
  Toxicity rescue: 496%
[4]; individual replicates, sheet EDF7
  cyclin K abundance (label-free MS): 199.985 and 224.267
[4]; [7]
  cyclin K abundance (label-free MS): 199.985 and 224.267
[4]; [8]
  CCNK peptide count (DMSO-normalised): 0.1093 and 0.1247
[4]; sheet EDF7
  average CCNK peptide count: 212.126
[5]; [7]
  CDK12 peptide count: 530.324 and 557.769
[5]; [8]
  CDK12 peptide count (DMSO-normalised): 0.5892 and 0.5761
[6]; [7]
  CDK13 peptide count: 256.293 and 280.454
[6]; [8]
  CDK13 peptide count (DMSO-normalised): 0.3813 and 0.431
